Laboratory results: PubChem BioAssay AID849 (SRMLSC, 2007)
The source made the active and inactive calls. How the calls were made is not given here.

The molecules below were run on Saccharomyces cerevisiae lifespan shortening, growth inhibition (assay: Saccharomyces cerevisiae growth inhibition potency – dose response (AID 849);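 further: yeast growth read as optical density after two days at 30 degrees C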).
Cc1cc2nc(C)n3c4ccccc4nc3n2n1 was tested, and the IC50 was 15.4 µM. For C/C(O)=c1/ccc2cccc3nc(C)nc1c23, the IC50 was 17.6 µM. In the case of COC1=C(N)C(=O)c2nc(-c3nc(C(=O)O)c(C)c(-c4ccc(OC)c(OC)c4O)c3N)ccc2C1=O, the IC50 is reported as 0.212 µM. Cc1cc(C(=O)COC(=O)c2ccc[nH]c2=O)c(C)n1-c1ccccc1 gave an IC50 of 21.3 µM. In the case of O=C(CCc1ccccc1)NNC(=S)NC(=O)c1ccccc1, the IC50 is reported as > 100 µM (inactive). Work on CSC1=NSC2=NC(=O)/C(=C/c3coc4ccccc4c3=O)C(=N)N12 yielded an IC50 of 44.1 µM. In the case of CC1=NOC(=O)/C1=C\c1ccc(-c2ccc(Cl)cc2Cl)o1, the IC50 is reported as > 100 µM (inactive). CCCCS(=O)(=O)/C=C\C=C/S(=O)(=O)CCCC was tested, and the IC50 was > 100 µM (inactive). With Cc1ccc(O)c(C(=O)CC(=O)c2cccc(F)c2)c1 the IC50 was > 100 µM (inactive). In the case of CC(Nc1ccc(Br)cn1)c1cc(Cl)ccc1O (centres undefined), the IC50 is reported as > 100 µM (inactive). NNC(=O)c1cccc(COc2ccc(Br)cc2)c1 showed an IC50 of 41.9 µM. For CN1CSC(=S)N(C)C1, the IC50 was 17.3 µM. In the case of CC(=O)O/N=C/c1c(N2CCOCC2)n(C)c2ccccc12, the IC50 is reported as 12.4 µM. With CCN1/C(=C/c2ccc3ccc(C)cc3[n+]2CC)Sc2ccccc21 the IC50 was 21.4 µM. O=C(CSCc1ccco1)Nc1cc(C(F)(F)F)ccc1N1CCOCC1 was tested, and the IC50 was > 100 µM (inactive). With Cc1ccc(C(=O)Oc2ccc(Cl)c3cccnc23)cc1[N+](=O)[O-] the IC50 was 47.4 µM. Work on CC(C)C(=O)NC(c1ccccc1)c1cc([N+](=O)[O-])c2cccnc2c1O (centres undefined) yielded an IC50 of 14.2 µM. For O=C(Nc1nc(-c2ccccn2)cs1)c1ncc(Cl)c(Cl)c1Cl, the IC50 was > 100 µM (inactive). For Cc1ccc(OC(=S)Nc2ccc(O)cc2)cc1, the IC50 was 14 µM. For C=CCSc1nnc2nc3c(nn12)c1cc(C)ccc1n3CC=C, the IC50 was > 100 µM (inactive). Molecule CCCOC(=O)c1ccc(Oc2cn[nH]c2-c2ccc(OC)cc2O)cc1 has an IC50 of 26 µM. CCOC(=O)c1c(/N=C/c2cccc([N+](=O)[O-])c2O)sc(C)c1C was tested, and the IC50 was 18.5 µM. For Cc1ccc(-n2c(Cl)c(Cl)nc(Cl)c2=O)cc1, the IC50 was 14.6 µM. For OCc1ccc(O)c2ncccc12, the IC50 was 32.2 µM. With CCCOC(=O)c1ccc(Oc2cn[nH]c2-c2ccc(OCC)cc2O)cc1 the IC50 was > 100 µM (inactive). For CC1=C(C)/C(=N\OS(=O)(=O)c2ccccc2)C=CC1=O, the IC50 was 30.3 µM. Work on Oc1c(Cl)cc(Cl)c2c1NCCC2 yielded an IC50 of 17.4 µM. In the case of O=[N+]([O-])c1cc(/C=N/O)ccc1Sc1ccccc1, the IC50 is reported as > 100 µM (inactive). In the case of CCC(C)NC(=O)CS(=O)Cc1nc(-c2ccccc2C)oc1C (centres undefined), the IC50 is reported as > 100 µM (inactive). Cc1cccc(Cn2ncc(Cl)c(Cl)c2=O)c1 gave an IC50 of 37.4 µM. O=[N+]([O-])c1ccc(CN2CCCCCC2)s1 was tested, and the IC50 was > 100 µM (inactive). With N#Cc1ccccc1NC(=O)c1ccc2c(Cl)c3c(nc2c1)CCCC3 the IC50 was > 100 µM (inactive). CCC(=C(c1ccc(OC)cc1)c1ccc(OC)cc1)c1cn(CC(O)CN2CCN(C)CC2)c2ccccc12 (centres undefined) showed an IC50 of 36.9 µM. In the case of CN(c1ccc(O)cc1)c1nc(-c2ccccc2)cs1, the IC50 is reported as > 100 µM (inactive). In the case of CCC(C)NC(=O)C1CCN(S(=O)(=O)c2cccc3cccnc23)CC1 (centres undefined), the IC50 is reported as > 100 µM (inactive). COc1ccccc1OCCN1CSC(=S)N(C)C1 gave an IC50 of 11.8 µM. Work on Cn1cccc1C(=O)Nc1nc(-c2ccccn2)cs1 yielded an IC50 of 33.7 µM. CC(C)(C)n1nc(-c2ccc(Cl)cc2)c2c(N)ncnc21 was tested, and the IC50 was 20.7 µM. CC1=NOC(=O)/C1=C/c1ccc(-c2ccc(Cl)cc2)o1 was tested, and the IC50 was > 100 µM (inactive). Cc1cc(C)c2c(N=NN(C)C)[nH]nc2n1 showed an IC50 of 12.2 µM. C=CCn1cnc2c(c1=O)c1nc3ccccc3nc1n2/N=C/c1cc(OC)c(OC)c(OC)c1 was tested, and the IC50 was 37.4 µM. Cc1[nH]n(-c2ccccc2)c(=O)c1/C=N/Nc1nncc(-c2ccccc2)n1 showed an IC50 of 19.3 µM. COc1ccc(-n2c(Cc3cccn3C)nnc2SCC(=O)N2CCCC2)cc1 was tested, and the IC50 was > 100 µM (inactive). With O=C1C(=C2CCCCC2)SC(=S)N1Cc1ccco1 the IC50 was > 100 µM (inactive). Cc1nc2ccc(NC(=O)c3cc([N+](=O)[O-])cc([N+](=O)[O-])c3Cl)cc2s1 showed an IC50 of 28.9 µM. With CCCCN=C(NNc1ccc(Br)cc1)C(=O)OCC the IC50 was 5.3 µM. Work on O=C(Nc1nc(-c2ccccn2)cs1)c1ccc(Br)s1 yielded an IC50 of 9.04 µM. Molecule Oc1c(CN2CCc3ccccc3C2)cc(Cl)c2cccnc12 has an IC50 of 16 µM. Work on Cc1cccc(C(=O)CC(=O)c2cc(Cl)ccc2O)c1 yielded an IC50 of 45.7 µM. Cc1ccc(C(=O)O)cc1N=Cc1cc(Br)cc(Br)c1O showed an IC50 of 37.4 µM. With C(=C\c1nc(N2CCCCCC2)c2ccccc2n1)/c1ccccc1 the IC50 was 42.1 µM. Cc1ccc(N/N=C(\C#N)C(N)=S)c(C)c1 was tested, and the IC50 was > 100 µM (inactive). Work on Cc1cc(OCc2ccc(C(=O)NN=C3CCCC3)cc2)ccc1Cl yielded an IC50 of 43.6 µM. CC(C)(C)C(=O)O/N=C1/C(=O)N(c2ccccc2)c2ccccc21 showed an IC50 of 30.6 µM. Work on Cc1ccccc1N=Cc1cccc(O)c1O yielded an IC50 of 10 µM. Cc1cc(C(=O)N/N=C/c2cccc([N+](=O)[O-])c2O)n[nH]1 was tested, and the IC50 was > 100 µM (inactive). N#C/C(=C\c1ccc([N+](=O)[O-])o1)c1nc2ccccc2[nH]1 was tested, and the IC50 was > 100 µM (inactive). NNC(=O)c1ccc(COc2ccc3c(c2)CCC3)o1 gave an IC50 of 15.1 µM. For COc1cc(/C=C2\C(=O)ON=C2c2ccccc2)cc(OC)c1OC, the IC50 was 18.5 µM.
